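Grown in 96-well plates, cells were treated for 48 hours with each compound at five concentrations. Insufficient inhibition: endpoint recorded as highest concentration tested. GI50 marks 50% less growth.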 Activity calls are given as the source filed them. Rule as the data show it: active = GI50 up to about 1.1 µM and inactive = higher.
Legend:
Test in all cases: NCI tumour cell line growth inhibition, 48 h
OVCAR-4 = tested on: OVCAR-4
786-0 = tested on: 786-0
COLO 205 = tested on: COLO 205
HT-29 = tested on: HT-29
KM12 = tested on: KM12
KM-20L2 = tested on: KM-20L2
SN12C = tested on: SN12C
CCRF-CEM = tested on: CCRF-CEM
OVCAR-3 = tested on: OVCAR-3
SF-295 = tested on: SF-295
U-251 = tested on: U-251
UO-31 = tested on: UO-31
TK-10 = tested on: TK-10
EKVX = tested on: EKVX
K562 = tested on: K562
HOP-92 = tested on: HOP-92
HOP-62 = tested on: HOP-62
MDA-N = tested on: MDA-N
BT-549 = tested on: BT-549
T47D = tested on: T47D

Measured: GI50

O=[N+]([O-])c1cc([N+](=O)[O-])c(/C=C/c2ccc(Cl)c(Cl)c2)cc1/C=C/c1ccc(Cl)c(Cl)c1
inactive: OVCAR-4 38.7 µM | 786-0 24.7 µM | COLO 205 18.7 µM | HT-29 28.1 µM | KM12 18.5 µM | KM-20L2 31 µM | SN12C 21.2 µM | CCRF-CEM 21.7 µM | OVCAR-3 17.5 µM | SF-295 25.6 µM | U-251 33 µM | UO-31 17.5 µM | TK-10 52.5 µM | EKVX 44.1 µM | K562 27.7 µM

CCOC(=O)C/C(N)=C(\C#N)C(=O)OCC
inactive: 786-0 > 100 µM | COLO 205 > 100 µM | HT-29 > 100 µM | KM12 > 100 µM | KM-20L2 > 100 µM | SN12C > 100 µM | CCRF-CEM > 100 µM | OVCAR-3 > 100 µM | SF-295 > 100 µM | U-251 > 100 µM | UO-31 > 100 µM | TK-10 > 100 µM | HOP-92 > 100 µM | EKVX > 100 µM | K562 > 100 µM

O=C(O)c1ccccc1Cc1ccco1
inactive: OVCAR-4 > 100 µM | 786-0 > 100 µM | COLO 205 > 100 µM | HT-29 > 100 µM | KM12 > 100 µM | KM-20L2 > 100 µM | SN12C > 100 µM | HOP-62 > 100 µM | OVCAR-3 > 100 µM | SF-295 > 100 µM | U-251 > 100 µM | UO-31 > 100 µM | TK-10 > 100 µM | HOP-92 > 100 µM | EKVX > 100 µM | K562 > 100 µM

CCc1cccc(C)c1NS(=O)(=O)c1ccccc1
inactive: OVCAR-4 > 100 µM | 786-0 > 100 µM | HT-29 > 100 µM | KM12 > 100 µM | KM-20L2 > 100 µM | CCRF-CEM > 100 µM | HOP-62 > 100 µM | OVCAR-3 > 100 µM | SF-295 > 100 µM | U-251 > 100 µM | UO-31 > 100 µM | TK-10 > 100 µM | EKVX > 100 µM | K562 > 100 µM

CN1C/C(=C\C=C\c2ccccc2)C(=O)/C(=C/C=C/c2ccccc2)C1
inactive: OVCAR-4 > 100 µM | 786-0 87.3 µM | COLO 205 > 100 µM | HT-29 > 100 µM | KM12 > 100 µM | KM-20L2 > 100 µM | SN12C > 100 µM | CCRF-CEM 35.9 µM | HOP-62 > 100 µM | OVCAR-3 > 100 µM | SF-295 > 100 µM | U-251 > 100 µM | UO-31 > 100 µM | TK-10 > 100 µM | EKVX > 100 µM | K562 > 100 µM

COc1ccc(CC2c3c(cc(OC)c(OC)c3OC)CCN2C)cc1OC (centres undefined)
inactive: OVCAR-4 78.7 µM | 786-0 > 100 µM | HT-29 > 100 µM | KM12 > 100 µM | KM-20L2 > 100 µM | SN12C > 100 µM | CCRF-CEM > 100 µM | HOP-62 > 100 µM | OVCAR-3 > 100 µM | SF-295 63.7 µM | U-251 > 100 µM | UO-31 > 100 µM | TK-10 > 100 µM | EKVX > 100 µM | K562 > 100 µM

C/C(=N\NC(C)(C)C)c1sc(-c2nc(C)c(/C(C)=N/NC(C)(C)C)s2)nc1C
inactive: OVCAR-4 > 100 µM | 786-0 > 100 µM | COLO 205 > 100 µM | HT-29 > 100 µM | KM-20L2 > 100 µM | SN12C > 100 µM | CCRF-CEM > 100 µM | OVCAR-3 > 100 µM | SF-295 > 100 µM | U-251 > 100 µM | UO-31 > 100 µM | HOP-92 > 100 µM | EKVX > 100 µM | K562 > 100 µM

COC(=O)c1csnn1
inactive: 786-0 > 100 µM | COLO 205 > 100 µM | HT-29 > 100 µM | KM12 > 100 µM | KM-20L2 > 100 µM | SN12C > 100 µM | CCRF-CEM > 100 µM | HOP-62 > 100 µM | OVCAR-3 > 100 µM | SF-295 > 100 µM | U-251 > 100 µM | UO-31 > 100 µM | TK-10 > 100 µM | EKVX > 100 µM | K562 > 100 µM

N#Cc1nc(Nc2cccc3ccccc23)sc1N
inactive: OVCAR-4 57.7 µM | 786-0 33 µM | COLO 205 24.6 µM | HT-29 41.1 µM | KM12 30.2 µM | KM-20L2 43.2 µM | SN12C 14.1 µM | HOP-62 33.3 µM | OVCAR-3 44.6 µM | SF-295 28.3 µM | U-251 22.2 µM | UO-31 12.9 µM | TK-10 40.6 µM | HOP-92 21.1 µM | K562 25.8 µM

C=CCOc1ccc(C2C(C(=O)OCC)C(=O)CC(C)(O)C2C(=O)OCC)cc1OC (centres undefined)
inactive: MDA-N > 100 µM | OVCAR-4 > 100 µM | 786-0 > 100 µM | COLO 205 > 100 µM | HT-29 > 100 µM | KM12 > 100 µM | SN12C > 100 µM | CCRF-CEM > 100 µM | HOP-62 > 100 µM | BT-549 > 100 µM | OVCAR-3 > 100 µM | SF-295 > 100 µM | U-251 > 100 µM | UO-31 > 100 µM | T47D > 100 µM | TK-10 > 100 µM | HOP-92 > 100 µM | EKVX > 100 µM | K562 > 100 µM

COc1ccc(/C=c2\s/c(=C3/SC(=S)N(c4ccccc4)C3=O)n(-c3ccccc3)c2=O)cc1
inactive: MDA-N > 100 µM | OVCAR-4 > 100 µM | 786-0 43.6 µM | COLO 205 > 100 µM | HT-29 > 100 µM | KM12 > 100 µM | SN12C > 100 µM | CCRF-CEM 24 µM | HOP-62 21.6 µM | BT-549 43.2 µM | OVCAR-3 > 100 µM | SF-295 35 µM | U-251 19.6 µM | UO-31 73.1 µM | T47D > 100 µM | TK-10 21.5 µM | HOP-92 21.6 µM | EKVX > 100 µM | K562 > 100 µM

COc1ccc2c(c1)C(=O)c1ccc(OC)cc1C2=S
inactive: 786-0 > 100 µM | COLO 205 > 100 µM | HT-29 > 100 µM | KM12 > 100 µM | KM-20L2 > 100 µM | SN12C > 100 µM | CCRF-CEM 25.5 µM | HOP-62 > 100 µM | OVCAR-3 > 100 µM | SF-295 > 100 µM | U-251 24.4 µM | UO-31 > 100 µM | TK-10 > 100 µM | HOP-92 > 100 µM | EKVX > 100 µM | K562 > 100 µM
